# Results published in ChEMBL document CHEMBL4765389, “Antimicrobial and anti-inflammatory activities of short dodecapeptides derived from duck cathelicidin: Plausible mechanism of bactericidal action and endotoxin neutralization” (Eur J Med Chem, 2020).
# Active and inactive are the calls of the source. The rule behind the calls is not given here. Bridge positions count the residues as written; N and C are the ends. Square brackets hold non-standard residues; d marks the D form. Peptide text beside a SMILES is read from it. * marks the point of attachment. X1 = CC[C@H](C)CCCCC(=O)*; Dab = NCC[C@H](N)C(=O)O
# What was measured:
# RAW264.7 [1] = assay: Antiinflammatory activity in mouse RAW264.7 cells assessed as suppression of LPS binding by measuring LPS-FITC aggregation at 10 uM pretreated with LPS for 1 hr followed by compound addition and measured after 30 mins by flowcytometry analysis (reference value: 67.93 %); assay type: functional; settings: 0.5 h
# RAW264.7 [2] = assay: Antiinflammatory activity in mouse RAW264.7 cells assessed as neutralization of LPS binding by measuring LPS-FITC aggregation at 10 uM pretreated with LPS for 1 hr followed by compound addition and measured after 1 hr by flowcytometry analysis (reference value: 48.12 %); assay type: functional
# Lipopolysaccharide (LPS) = assay: Inhibition of Escherichia coli O111:B4 LPS aggregation assessed as increase in FITC-LPS dissociation at 100 uM by spectrofluorometry
# Bacteria [3] = assay: Antibacterial activity against Gram positive bacteria assessed as reduction in bacterial growth incubated for 24 hrs by CLSI based broth dilution method; assay type: functional; settings: read-out: MIC100
# Candida albicans [4] = assay: Antifungal activity against Candida albicans KCTC 7121 assessed as reduction in fungal growth incubated for 24 hrs by CLSI based broth dilution method; assay type: functional; settings: read-out: MIC100
# Cell membrane [5] = assay: Induction of cell membrane permeability in Escherichia coli KCTC 1682 assessed as […] at 2 times MIC by ONPG dye based spectrophotometry; assay type: subcellular
# [6] = Antibacterial activity against multidrug-resistant Pseudomonas aeruginosa CCARM 2109 assessed as reduction in bacterial growth incubated for 24 hrs by CLSI based broth dilution method; assay type: functional; settings: read-out: MIC100
# [7] = Therapeutic index, ratio of HC10 for sheep RBC to geometric mean MIC for yeast; assay type: toxicity; settings: sheep red blood cells, read-out: TI
# [8] = Cytotoxicity against mouse RAW264.7 cells assessed as reduction in cell viability at 20 uM incubated for 24 hrs by MTT assay; assay type: cell-based; settings: read-out: INH
# Saccharomyces cerevisiae = assay: Antifungal activity against yeast assessed as reduction in fungal growth incubated for 24 hrs by CLSI based broth dilution method; assay type: functional; settings: read-out: MIC100
# RAW264.7 [9] = assay: Cytotoxicity against mouse RAW264.7 cells assessed as reduction in cell viability at 1.25 to 80 uM incubated for 24 hrs by MTT assay; assay type: cell-based; settings: raw264.7, 24 h, dose 1.25-80 µM
# Cell membrane [10] = assay: Induction of cell membrane permeability in Staphylococcus aureus KCTC 1621 assessed as cytoplasmic membrane depolarization at 2 times MIC by DiSC3-5 dye based spectrofluorometry; assay type: subcellular
# [11] = Therapeutic index, ratio of HC10 for sheep RBC to geometric mean MIC for gram negative bacteria; assay type: toxicity; settings: sheep red blood cells, read-out: TI
# Cell membrane [12] = assay: Induction of cell membrane permeability in Staphylococcus aureus KCTC 1621 assessed as cytoplasmic membrane depolarization at 2 times MIC by SYTOX dye based fluorescence assay; assay type: subcellular
# [13] = Therapeutic index, ratio of HC10 for sheep RBC to geometric mean MIC for gram positive bacteria; assay type: toxicity; settings: sheep red blood cells, read-out: TI
# Cell membrane [14] = assay: Induction of cell membrane permeability in Escherichia coli KCTC 1682 assessed as cytoplasmic membrane […] fluorescent signals at 2 times MIC measured after 1 hr by propidium iodide dye based flow cytometry analysis (reference value: 9.8 %); assay type: subcellular
# [15] = Antibacterial activity against multidrug-resistant Pseudomonas aeruginosa CCARM 2095 assessed as reduction in bacterial growth incubated for 24 hrs by CLSI based broth dilution method; assay type: functional; settings: read-out: MIC100
# Candida albicans [16] = assay: Antifungal activity against Candida albicans KCTC 7965 assessed as reduction in fungal growth incubated for 24 hrs by CLSI based broth dilution method; assay type: functional; settings: read-out: MIC100
# Erythrocyte [17] = assay: Hemolytic activity in sheep RBC assessed as reduction in hemoglobin incubated for 1 hr; assay type: ADME, cell-based, Ovis aries
# NIH3T3 [18] = assay: (§1) Cytotoxicity against mouse NIH/3T3 cells assessed as reduction in cell viability at 20 uM incubated for 24 hrs by MTT assay; assay type: cell-based; settings: nih3t3, 24 h, 20 µM
# Enterococcus faecium = assay: Antibacterial activity against vancomycin-resistant Enterococcus faecium ATCC 51559 assessed as reduction in bacterial growth incubated for 24 hrs by CLSI based broth dilution method; assay type: functional; settings: read-out: MIC100
# Bacteria [19] = assay: Antibacterial activity against Gram negative bacteria assessed as reduction in bacterial growth incubated for 24 hrs by CLSI based broth dilution method; assay type: functional; settings: read-out: MIC100
# NIH3T3 [20] = assay: Cytotoxicity against mouse NIH/3T3 cells assessed as reduction in cell viability at 1.25 to 80 uM incubated for 24 hrs by MTT assay; assay type: cell-based; settings: nih3t3, 24 h, dose 1.25-80 µM
# [21] = Cytotoxicity against mouse RAW264.7 cells assessed as reduction in cell viability at 10 uM incubated for 24 hrs by MTT assay; assay type: cell-based; settings: read-out: INH
# Escherichia coli = assay: Antibacterial activity against Escherichia coli KCTC 1682 assessed as reduction in bacterial growth incubated for 24 hrs by CLSI based broth dilution method; assay type: functional; settings: read-out: MIC100
# [22] = Hemolytic activity in sheep RBC assessed as reduction in hemoglobin at 64 uM incubated for 1 hr; assay type: ADME, cell-based, Ovis aries, Erythrocyte; settings: sheep red blood cells (erythrocytes), read-out: Activity
# Staphylococcus aureus [23] = assay: Antibacterial activity against Staphylococcus aureus KCTC 1621 assessed as reduction in bacterial growth incubated for 24 hrs by CLSI based broth dilution method; assay type: functional; settings: read-out: MIC100
# Erythrocyte [24] = assay: Hemolytic activity in sheep RBC assessed as reduction in hemoglobin at 256 uM incubated for 1 hr; assay type: ADME, cell-based, Ovis aries
# Pseudomonas aeruginosa = assay: Antibacterial activity against Pseudomonas aeruginosa KCTC 1637 assessed as reduction in bacterial growth incubated for 24 hrs by CLSI based broth dilution method; assay type: functional; settings: read-out: MIC100
# Staphylococcus aureus [25] = assay: Antibacterial activity against methicillin-resistant Staphylococcus aureus CCARM 3095 assessed as reduction in bacterial growth incubated for 24 hrs by CLSI based broth dilution method; assay type: functional; settings: read-out: MIC100
# [26] = Cytotoxicity against mouse NIH/3T3 cells assessed as reduction in cell viability at 10 uM incubated for 24 hrs by MTT assay; assay type: cell-based, NIH3T3; settings: read-out: INH
# [27] = Retention time of the compound by RP-HPLC method; assay type: physicochemical
# Staphylococcus aureus [28] = assay: Antibacterial activity against methicillin-resistant Staphylococcus aureus CCARM 3090 assessed as reduction in bacterial growth incubated for 24 hrs by CLSI based broth dilution method; assay type: functional; settings: read-out: MIC100
# [29] = as §1; assay type: cell-based, NIH3T3; settings: NIH/3T3 cells, read-out: INH
# Staphylococcus aureus [30] = assay: Antibacterial activity against methicillin-resistant Staphylococcus aureus CCARM 3089 assessed as reduction in bacterial growth incubated for 24 hrs by CLSI based broth dilution method; assay type: functional; settings: read-out: MIC100
# Salmonella typhimurium = assay: Antibacterial activity against Salmonella typhimurium KCTC 1926 assessed as reduction in bacterial growth incubated for 24 hrs by CLSI based broth dilution method; assay type: functional, Salmonella enterica subsp. enterica serovar Typhimurium; settings: Salmonella enterica, read-out: MIC100
# [31] = system: Staphylococcus epidermidis; assay: Antibacterial activity against Staphylococcus epidermidis KCTC 1917 assessed as reduction in bacterial growth incubated for 24 hrs by CLSI based broth dilution method; assay type: functional; settings: read-out: MIC100
# Bacillus subtilis = assay: Antibacterial activity against Bacillus subtilis KCTC 3068 assessed as reduction in bacterial growth incubated for 24 hrs by CLSI based broth dilution method; assay type: functional; settings: read-out: MIC100
Molecule,MIC (Bacteria [3]),MIC (Candida albicans [4]),MIC [6],selectivity ratio [7],"cytotoxicity at 24 h, 20 µM [8]",MIC (Saccharomyces cerevisiae),selectivity ratio [11],selectivity ratio [13],MIC [15],MIC (Candida albicans [16]),HC10 (Erythrocyte [17]),MIC (Enterococcus faecium),MIC (Bacteria [19]),also measured
CC[C@H](C)CCCCC(=O)N[C@@H](CCN)C(=O)N[C@H](C(=O)N[C@@H](CCN)C(=O)N[C@H]1CCNC(=O)[C@H]([C@@H](C)O)NC(=O)[C@H](CCN)NC(=O)[C@H](CCN)NC(=O)[C@H](CC(C)C)NC(=O)[C@@H](Cc2ccccc2)NC(=O)[C@H](CCN)NC1=O)[C@@H](C)O (X1-[Dab]T[Dab][Dab][Dab][dF]L[Dab][Dab]T; lactam 4-C),,,,,,,,,,,,,,Activity (RAW264.7 [1]): 23.97%; Activity (RAW264.7 [2]): 43.62%; inhibition (Lipopolysaccharide (LPS)): inactive
CC[C@H](C)[C@H](NC(=O)CN)C(=O)NCC(=O)N[C@@H](C)C(=O)N[C@H](C(=O)N[C@@H](CC(C)C)C(=O)N[C@@H](CCCCN)C(=O)N[C@H](C(=O)N[C@@H](CC(C)C)C(=O)N[C@H](C(=O)N[C@H](C(=O)NCC(=O)N[C@@H](CC(C)C)C(=O)N1CCC[C@H]1C(=O)N[C@@H](C)C(=O)N[C@@H](CC(C)C)C(=O)N[C@H](C(=O)N[C@@H](CO)C(=O)N[C@@H](Cc1c[nH]c2ccccc12)C(=O)N[C@H](C(=O)N[C@@H](CCCCN)C(=O)N[C@@H](CCCNC(=N)N)C(=O)N[C@@H](CCCCN)C(=O)N[C@@H](CCCNC(=N)N)C(=O)N[C@@H](CCC(N)=O)C(=O)N[C@@H](CCC(N)=O)C(N)=O)[C@@H](C)CC)[C@@H](C)CC)[C@@H](C)O)[C@@H](C)O)C(C)C)C(C)C [MELITTIN],16 µM,16 µM,32 µM,0.1,< 10%,16 µM,0.1,0.1,32 µM,16 µM,1 µM,16 µM,17.2 µM,Activity (Cell membrane [5]): Active; Activity (RAW264.7 [9]): Toxic; Activity (Cell membrane [10]): Active; Activity (Cell membrane [12]): Active; Activity (Cell membrane [14]): 71.9%; Activity (NIH3T3 [18]): Toxic; Activity (NIH3T3 [20]): Toxic
H-KRFWQLVPLAIKIYRAWKRR-OH,11.4 µM,16 µM,16 µM,0.4,< 10%,12 µM,0.4,0.4,16 µM,8 µM,5.1 µM,16 µM,12 µM,"cytotoxicity at 24 h, 10 µM [21]: 40%; MIC (Escherichia coli): 8 µM; hemolysis at 1 h, 64 µM [22]: 40%; MIC (Staphylococcus aureus [23]): 8 µM; Activity (Erythrocyte [24]): Non-Toxic; MIC (Pseudomonas aeruginosa): 16 µM; MIC (Staphylococcus aureus [25]): 8 µM; cytotoxicity at 24 h, 10 µM [26]: 40%; Retention_time [27]: 26.8 min; MIC (Staphylococcus aureus [28]): 16 µM; cytotoxicity at 24 h, 20 µM [29]: < 10%; MIC (Staphylococcus aureus [30]): 16 µM; MIC (Salmonella typhimurium): 4 µM; MIC [31]: 8 µM; MIC (Bacillus subtilis): 8 µM"
